Values quoted from earlier work, collected in US20090022794A1, “Topiramate Tablet Formulation” (priority 2005, published 2009).
In brackets after ≈: the same amount, converted by molar mass.

Experiments:
[1] = relative humidity as high as 90%

SMILES | moisture picked up [1] | solubility in alkaline solutions, acetone, dimethylsulfoxide and ethanol (alkaline solutions, acetone, dimethylsulfoxide, ethanol) | solubility in water (water) [µg/mL]
OC[C@@H](O)[C@@H](O)[C@H](O)[C@H](O)CO [Mannitol] | less than 1% | – | –
CC1(C)O[C@@H]2[C@@H](CO[C@@]3(COS(N)(=O)=O)OC(C)(C)O[C@@H]23)O1 [Topiramate, 2,3:4,5-Bis-O-(1-methylethylidene)-β-D-fructopyranose sulfamate] | – | soluble | 9800 (≈ 28.9 mM)
